Experimental findings from patent publication US11208386B2, “Inhibitors of protein arginine deiminases (PADs) and methods of preparation and use thereof” (University of Massachusetts, priority 2016, dated 2021) are described below.

What all share (type): biochemical
For assay [1], the target named is T1, PAD1 (Homo sapiens, UniProt Q9ULC6).
T1 construct: made in house
T1 sequence (Q9ULC6 1-663): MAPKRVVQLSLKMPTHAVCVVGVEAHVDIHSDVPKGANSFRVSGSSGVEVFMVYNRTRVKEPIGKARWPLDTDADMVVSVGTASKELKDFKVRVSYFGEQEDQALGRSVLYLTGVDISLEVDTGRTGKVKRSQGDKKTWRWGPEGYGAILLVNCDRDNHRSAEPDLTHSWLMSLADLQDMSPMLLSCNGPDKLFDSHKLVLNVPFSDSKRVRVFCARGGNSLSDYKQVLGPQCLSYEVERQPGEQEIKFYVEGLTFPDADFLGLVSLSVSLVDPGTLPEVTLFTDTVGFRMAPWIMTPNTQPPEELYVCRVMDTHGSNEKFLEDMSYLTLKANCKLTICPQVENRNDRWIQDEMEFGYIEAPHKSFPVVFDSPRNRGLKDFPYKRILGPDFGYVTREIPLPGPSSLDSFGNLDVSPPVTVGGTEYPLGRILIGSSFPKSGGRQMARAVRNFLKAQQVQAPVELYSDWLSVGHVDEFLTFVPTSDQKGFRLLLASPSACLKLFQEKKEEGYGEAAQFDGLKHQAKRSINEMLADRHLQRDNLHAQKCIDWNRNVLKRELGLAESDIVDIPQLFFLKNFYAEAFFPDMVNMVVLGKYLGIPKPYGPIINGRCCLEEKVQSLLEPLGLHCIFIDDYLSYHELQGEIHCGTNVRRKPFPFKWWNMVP
Put plainly: Inactivation kinetics, PAD1. Conditions: for kinact/KI: a: single kobs determined, b: from a linear fit; for Fold PAD1 Selectivity: kinact/KI relative to least inhibited isozyme (1.0). The method, boiled down:
(§1)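 PAD1, 2 or 4 (2.0 μM) or PAD3 (5.0 μM) preincubated at 37 °C with varying inhibitor in 50 mM HEPES, 10 mM CaCl2, 2 mM DTT, pH 7.6. Timed aliquots assayed 15 min with 10 mM BAEE (BAA for PAD3); citrulline quantified by COLDER.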

For assay [2], the target named is T2, PAD2 (Homo sapiens, UniProt Q9Y2J8).
T2 construct: made in house
Put plainly: Inactivation kinetics, PAD2. The settings on record: for kinact/KI: a: single kobs determined, b: from a linear fit, other footnotes: from kinact and KI; for Fold PAD2 Selectivity: kinact/KI relative to least inhibited isozyme (1.0). An outline of the steps: as §1

Assay [3] deals with T3, PAD3 (Homo sapiens, UniProt Q9ULW8).
T3 construct: made in house
T3 sequence (Q9ULW8 1-664): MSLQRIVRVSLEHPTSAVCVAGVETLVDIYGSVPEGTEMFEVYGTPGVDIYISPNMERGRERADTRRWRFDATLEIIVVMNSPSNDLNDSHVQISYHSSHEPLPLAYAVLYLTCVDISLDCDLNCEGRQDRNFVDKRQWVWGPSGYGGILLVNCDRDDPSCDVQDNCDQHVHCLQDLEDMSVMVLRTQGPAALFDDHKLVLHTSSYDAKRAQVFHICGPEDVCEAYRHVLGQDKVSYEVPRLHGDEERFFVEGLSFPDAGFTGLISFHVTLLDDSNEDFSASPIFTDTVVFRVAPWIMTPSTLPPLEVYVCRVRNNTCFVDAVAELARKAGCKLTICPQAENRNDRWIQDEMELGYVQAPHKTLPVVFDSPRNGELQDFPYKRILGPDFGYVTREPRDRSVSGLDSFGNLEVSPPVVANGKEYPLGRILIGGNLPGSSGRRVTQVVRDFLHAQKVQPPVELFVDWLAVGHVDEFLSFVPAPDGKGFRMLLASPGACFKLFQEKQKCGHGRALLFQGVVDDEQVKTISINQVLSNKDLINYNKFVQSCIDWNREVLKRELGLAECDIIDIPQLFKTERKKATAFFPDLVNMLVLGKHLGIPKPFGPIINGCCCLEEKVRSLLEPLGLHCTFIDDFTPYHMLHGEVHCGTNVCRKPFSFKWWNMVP
Put plainly: Inactivation kinetics, PAD3. The settings on record: for kinact/KI: a: single kobs determined; for Fold PAD3 Selectivity: kinact/KI relative to least inhibited isozyme (1.0). The method, boiled down: as §1

Assay [4] has as its target T4, PAD4 (Homo sapiens, UniProt Q9UM07).
T4 construct: made in house
Description: Inactivation kinetics, PAD4. Conditions: for kinact/KI: a: single kobs determined, b: from a linear fit; for Fold PAD4 Selectivity: kinact/KI relative to least inhibited isozyme (1.0). The method, boiled down: as §1

T4 sequence (Q9UM07 whole entry): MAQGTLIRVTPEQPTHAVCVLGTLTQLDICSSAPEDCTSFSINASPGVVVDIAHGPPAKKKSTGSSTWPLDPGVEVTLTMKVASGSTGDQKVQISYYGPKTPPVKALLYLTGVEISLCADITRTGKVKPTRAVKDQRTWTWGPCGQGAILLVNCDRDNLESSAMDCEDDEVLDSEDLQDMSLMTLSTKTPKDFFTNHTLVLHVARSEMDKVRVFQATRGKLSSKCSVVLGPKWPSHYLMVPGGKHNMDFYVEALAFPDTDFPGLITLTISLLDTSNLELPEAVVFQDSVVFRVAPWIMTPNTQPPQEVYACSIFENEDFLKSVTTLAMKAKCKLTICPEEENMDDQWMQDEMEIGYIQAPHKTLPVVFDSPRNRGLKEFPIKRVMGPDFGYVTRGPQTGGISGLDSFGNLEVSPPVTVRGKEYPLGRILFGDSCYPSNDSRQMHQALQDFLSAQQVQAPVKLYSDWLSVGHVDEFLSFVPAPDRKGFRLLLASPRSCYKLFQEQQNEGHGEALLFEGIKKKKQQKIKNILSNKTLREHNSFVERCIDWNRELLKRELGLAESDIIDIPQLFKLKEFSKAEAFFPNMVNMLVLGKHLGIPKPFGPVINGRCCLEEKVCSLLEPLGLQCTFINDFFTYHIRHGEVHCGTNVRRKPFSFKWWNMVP
T2 sequence (Q9Y2J8 whole entry): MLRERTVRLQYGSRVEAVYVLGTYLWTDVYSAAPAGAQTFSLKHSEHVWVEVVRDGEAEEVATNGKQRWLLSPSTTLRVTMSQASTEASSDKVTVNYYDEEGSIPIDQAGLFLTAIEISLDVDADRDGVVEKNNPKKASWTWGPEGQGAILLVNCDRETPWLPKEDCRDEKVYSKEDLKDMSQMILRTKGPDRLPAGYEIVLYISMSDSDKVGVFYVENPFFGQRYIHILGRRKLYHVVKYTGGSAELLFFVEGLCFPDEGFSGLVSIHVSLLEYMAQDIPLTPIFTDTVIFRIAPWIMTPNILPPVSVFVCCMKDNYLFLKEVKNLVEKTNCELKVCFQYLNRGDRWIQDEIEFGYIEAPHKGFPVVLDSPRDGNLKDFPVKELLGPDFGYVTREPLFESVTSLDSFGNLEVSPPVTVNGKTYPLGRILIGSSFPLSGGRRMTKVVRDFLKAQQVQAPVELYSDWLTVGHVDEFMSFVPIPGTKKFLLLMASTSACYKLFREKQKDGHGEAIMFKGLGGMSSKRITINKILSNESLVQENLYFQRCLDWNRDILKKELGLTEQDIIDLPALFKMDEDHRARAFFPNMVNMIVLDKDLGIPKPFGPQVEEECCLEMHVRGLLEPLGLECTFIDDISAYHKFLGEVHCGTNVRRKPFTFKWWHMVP

For `COc1ccc2c(c1)nc([C@H](CCCNC(=N)CCl)NC(=O)c1cccc3c1C(=O)NC3)n2C` [Compound 7p, N1-(3-oxoisoindoline)benzoyl-N5-(2-chloro-1-iminoethyl)-1-(5-methoxy-1-methyl-benzo[d]imidazol-2-yl)-L-ornithine], in assay [1], the kinact/KI is 2210 M⁻¹ s⁻¹ and the “Fold PAD1 Selectivity” value turned out to be 25 fold. Besides, in assay [2], the kinact/KI was 908 M⁻¹ s⁻¹ and the “Fold PAD2 Selectivity” value was 10 fold. Further, in assay [3], the kinact/KI is 218 M⁻¹ s⁻¹ and the “Fold PAD3 Selectivity” value is reported as 2.4 fold. For the same compound, in assay [4], the kinact/KI is 90.2 M⁻¹ s⁻¹ and the “Fold PAD4 Selectivity” value was 1.0 fold.

In the case of `CCN1Cc2cccc(C(=O)N[C@@H](CCCNC(=N)CCl)c3nc4c(OC)cccc4[nH]3)c2C1=O` [Compound 8j, N1-(2-ethyl-3-oxoisoindoline)benzoyl-N5-(2-chloro-1-iminoethyl)-1-(4-methoxy-1H-benzo[d]imidazol-2-yl)-L-ornithine], in assay [1], the kinact/KI is 1530 M⁻¹ s⁻¹ and the “Fold PAD1 Selectivity” value is on record as 5.0 fold. In assay [2], the kinact/KI is 720 M⁻¹ s⁻¹ and the “Fold PAD2 Selectivity” value was found to be 2.3 fold. Moreover, in assay [3], the kinact/KI was 313 M⁻¹ s⁻¹ and the “Fold PAD3 Selectivity” value came out at 1.0 fold. Further, in assay [4], the kinact/KI was 308 M⁻¹ s⁻¹ and the “Fold PAD4 Selectivity” value worked out at 1.0 fold.

As for `CCn1c([C@H](CCCNC(=N)CCl)NC(=O)c2cccc3c2C(=O)NC3)nc2cc(OC)ccc21` [Compound 7v, N1-(3-oxoisoindoline)benzol-N5-(2-chloro-1-iminoethyl)-1-(5-methoxy-1-ethyl-benzo[d]imidazol-2-yl)-L-ornithine], in assay [1], the kinact/KI is 1010 M⁻¹ s⁻¹ and the “Fold PAD1 Selectivity” value turned out to be 21 fold. Besides, in assay [2], the kinact/KI was 780 M⁻¹ s⁻¹ and the “Fold PAD2 Selectivity” value was 16 fold. Besides, in assay [3], the kinact/KI was 214 M⁻¹ s⁻¹ and the “Fold PAD3 Selectivity” value was 4.4 fold. Further, in assay [4], the kinact/KI was 48.8 M⁻¹ s⁻¹ and the “Fold PAD4 Selectivity” value is 1.0 fold.

Take `Cn1c([C@H](CCCNC(=N)CF)NC(=O)c2ccccc2C(=O)OC(C)(C)C)nc2ccccc21` [Compound 9a, N1-(2-tert-butylcarboxy)benzoyl-N5-(2-fluoro-1-iminoethyl)-1-(1-methyl-benzo[d]imidazol-2-yl)-L-ornithine]: in assay [1], the kinact/KI is 41.2 M⁻¹ s⁻¹ and the “Fold PAD1 Selectivity” value was 2.1 fold. In assay [2], the kinact/KI is 40 M⁻¹ s⁻¹ and the “Fold PAD2 Selectivity” value is on record as 2.0 fold. For the same compound, in assay [3], the kinact/KI is 20 M⁻¹ s⁻¹ and the “Fold PAD3 Selectivity” value is reported as 1.0 fold. For the same compound, in assay [4], the second-order inactivation constant (kinact/KI) was 40.5 M⁻¹ s⁻¹ and the “Fold PAD4 Selectivity” value was determined as 2.0 fold.

For the compound `CCn1c([C@H](CCCNC(=N)CF)NC(=O)c2ccccc2C(=O)OC(C)(C)C)nc2ccccc21` [Compound 9c, N1-(2-tert-butylcarboxy)benzoyl-N5-(2-fluoro-1-iminoethyl)-1-(1-ethyl-benzo[d]imidazol-2-yl)-L-ornithine], in assay [1], the kinact/KI is 15.8 M⁻¹ s⁻¹ and the “Fold PAD1 Selectivity” value turned out to be 2.2 fold. In assay [2], the kinact/KI is 102 M⁻¹ s⁻¹ and the “Fold PAD2 Selectivity” value is 14 fold. In assay [3], the kinact/KI was 51.7 M⁻¹ s⁻¹ and the “Fold PAD3 Selectivity” value was 7.0 fold. Besides, in assay [4], the second-order inactivation constant (kinact/KI) was 7.33 M⁻¹ s⁻¹ and the “Fold PAD4 Selectivity” value worked out at 1.0 fold.

`CCn1c([C@H](CCCNC(=N)CF)NC(=O)c2ccccc2C(=O)O)nc2ccccc21` [Compound 6e, N1-(2-Carboxyl)benzoyl-N5-(2-fluoro-1-iminoethyl)-1-(1-ethyl-benzo[d]imidazol-2-yl)-L-ornithine]: in assay [1], the kinact/KI is 650 M⁻¹ s⁻¹ and the “Fold PAD1 Selectivity” value is 39 fold. In assay [2], the kinact/KI is 527 M⁻¹ s⁻¹ and the “Fold PAD2 Selectivity” value was found to be 31 fold. Moreover, in assay [3], the second-order inactivation constant (kinact/KI) was 29.2 M⁻¹ s⁻¹ and the “Fold PAD3 Selectivity” value was found to be 1.7 fold. Also, in assay [4], the kinact/KI is 16.8 M⁻¹ s⁻¹ and the “Fold PAD4 Selectivity” value worked out at 1.0 fold.

For `N=C(CCl)NCCC[C@H](NC(=O)c1ccc(-c2ccc(F)cc2)cc1)c1nc2cc(F)c(F)cc2[nH]1` [Compound 5t, N1-4′-F-[1,1′-Phenyl]benzoyl-N5-(2-chloro-1-iminoethyl)-1-(5,6-difluoro-1H-benzo[d]imidazol-2-yl)-L-omithine], in assay [1], the kinact/KI was 508 M⁻¹ s⁻¹ and the “Fold PAD1 Selectivity” value is recorded as 5.3 fold. In assay [2], the kinact/KI was 95.5 M⁻¹ s⁻¹ and the “Fold PAD2 Selectivity” value was determined as 1.0 fold. Besides, in assay [3], the kinact/KI is 120 M⁻¹ s⁻¹ and the “Fold PAD3 Selectivity” value came out at 1.3 fold. Besides, in assay [4], the kinact/KI is 354 M⁻¹ s⁻¹ and the “Fold PAD4 Selectivity” value was found to be 3.7 fold.

Regarding `COc1cccc2c1nc([C@H](CCCNC(=N)CF)NC(=O)c1cccc3c1C(=O)N(C1CC1)C3)n2C` [Compound 8s], in assay [1], the kinact/KI is 766 M⁻¹ s⁻¹ and the “Fold PAD1 Selectivity” value is on record as 38 fold. In assay [2], the kinact/KI is 1570 M⁻¹ s⁻¹ and the “Fold PAD2 Selectivity” value worked out at 77 fold. Besides, in assay [3], the kinact/KI was 20.3 M⁻¹ s⁻¹ and the “Fold PAD3 Selectivity” value was found to be 1.0 fold. In addition, in assay [4], the kinact/KI was 75 M⁻¹ s⁻¹ and the “Fold PAD4 Selectivity” value is recorded as 3.8 fold.

As for `C#Cc1ccc(-c2ccc(C(=O)N[C@@H](CCCNC(=N)CCl)c3nc4ccccc4[nH]3)cc2)cc1` [Compound 5v, N1-4′-ethynyl-[1,1′-Phenyl]benzol-N5-(2-chloro-1-iminoethyl)-1-(1H-benzo[d]imidazol-2-yl)-L-ornithine], in assay [1], the kinact/KI is 6.92 M⁻¹ s⁻¹ and the “Fold PAD1 Selectivity” value stood at 1.1 fold. Also, in assay [2], the kinact/KI is 14.6 M⁻¹ s⁻¹ and the “Fold PAD2 Selectivity” value was determined as 2.3 fold. In addition, in assay [3], the kinact/KI is 6.25 M⁻¹ s⁻¹ and the “Fold PAD3 Selectivity” value is 1.0 fold. Besides, in assay [4], the inactivation efficiency (kinact/KI) is 21.7 M⁻¹ s⁻¹ and the “Fold PAD4 Selectivity” value turned out to be 3.5 fold.

Consider `CCN1Cc2cccc(C(=O)N[C@@H](CCCNC(=N)CCl)c3nc4ccccc4n3C(C)C)c2C1=O` [Compound 8h, N1-(2-ethyl-3-oxoisoindoline)benzoyl-N5-(2-chloro-1-iminoethyl)-1-(1-isopropyl-benzo[d]imidazol-2-yl)-L-ornithine], for which, in assay [1], the kinact/KI was 448 M⁻¹ s⁻¹ and the “Fold PAD1 Selectivity” value stood at 11 fold. In addition, in assay [2], the second-order inactivation constant (kinact/KI) is 277 M⁻¹ s⁻¹ and the “Fold PAD2 Selectivity” value came to 6.8 fold. Also, in assay [3], the kinact/KI was 80 M⁻¹ s⁻¹ and the “Fold PAD3 Selectivity” value amounted to 2.0 fold. Further, in assay [4], the kinact/KI is 40.5 M⁻¹ s⁻¹ and the “Fold PAD4 Selectivity” value is on record as 1.0 fold.

For `Cn1c([C@H](CCCNC(=N)CCl)NC(=O)c2ccccc2C(=O)OC(C)(C)C)nc2ccccc21` [Compound 9b, N1-(2-tert-butylcarboxy)benzol-N5-(2-chloro-1-iminoethyl)-1-(1-methyl-benzo[d]imidazol-2-yl)-L-ornithine], in assay [1], the inactivation efficiency (kinact/KI) was 325 M⁻¹ s⁻¹ and the “Fold PAD1 Selectivity” value amounted to 5.9 fold. Besides, in assay [2], the kinact/KI was 55.2 M⁻¹ s⁻¹ and the “Fold PAD2 Selectivity” value is 1.0 fold. In assay [3], the kinact/KI is 86.7 M⁻¹ s⁻¹ and the “Fold PAD3 Selectivity” value is 1.6 fold. For the same compound, in assay [4], the kinact/KI is 64.2 M⁻¹ s⁻¹ and the “Fold PAD4 Selectivity” value is 1.2 fold.

Turning to `Cn1c([C@H](CCCNC(=N)CF)NC(=O)c2ccc(-c3ccccc3)cc2)nc2ccccc21` [Compound 5g, N1-[1,4′-Phenyl]benzoyl-N5-(2-fluoro-1-iminoethyl)-1-(1-methyl-benzo[d]imidazol-2-yl)-L-ornithine], in assay [1], the kinact/KI was 21.3 M⁻¹ s⁻¹ and the “Fold PAD1 Selectivity” value is recorded as 2.8 fold. Also, in assay [2], the kinact/KI is 13.7 M⁻¹ s⁻¹ and the “Fold PAD2 Selectivity” value was found to be 1.8 fold. In assay [3], the kinact/KI is 26.7 M⁻¹ s⁻¹ and the “Fold PAD3 Selectivity” value was 3.6 fold. For the same compound, in assay [4], the kinact/KI was 7.5 M⁻¹ s⁻¹ and the “Fold PAD4 Selectivity” value amounted to 1.0 fold.

One may read the kinact/KI as the second-order rate constant of inactivation.
